One assay deals with HL-60(TB). Nature of the assay: NCI 60 panel, Leukemia HL-60(TB). Type of assay: cell-based. The note with it: Homo sapiens, read-out: Tumor cell inhibitory activity (NCI) GI50.
The next assay deals with RPMI-8226. As to the kind of experiment: NCI 60 panel, Leukemia RPMI-8226. The format is cell-based. The note with it: Homo sapiens, read-out: Tumor cell inhibitory activity (NCI) GI50.
In another assay the test system is MCF7. Nature of the assay: NCI 60 panel, Breast Cancer MCF7. Type of assay: cell-based. The note with it: Homo sapiens, read-out: Tumor cell inhibitory activity (NCI) GI50.
For a further assay, the system named is SF-268. As to the kind of experiment: NCI 60 panel, CNS Cancer SF-268. The note with it: Homo sapiens, read-out: Tumor cell inhibitory activity (NCI) GI50. Type of assay: cell-based.
The next assay deals with RXF 393. As to the kind of experiment: NCI 60 panel, Renal Cancer RXF 393. The format is cell-based. Conditions: Homo sapiens, read-out: Tumor cell inhibitory activity (NCI) GI50.
The test system of assay [1] is blood vessel formation in the chicken chorioallantoic membrane (CAM). As to the kind of experiment: chicken chorioallantoic membrane (CAM) antiangiogenic activity assay. The note with it: Gallus gallus. The format is in vivo.
The test system of a further assay is HCC-2998. As to the kind of experiment: NCI 60 panel, Colon Cancer HCC-2998. The format is cell-based. The note with it: Homo sapiens, read-out: Tumor cell inhibitory activity (NCI) GI50.
Another assay deals with NCI-H460. Nature of the assay: NCI 60 panel, NSCLC NCI-H460. The format is cell-based. The note with it: Homo sapiens, read-out: Tumor cell inhibitory activity (NCI) GI50.
Assay [2] deals with NCI 60 tumor cell line panel. Nature of the assay: NCI 60 tumor cell line panel, overall. The format is cell-based.
In another assay the test system is CAKI-1. Nature of the assay: NCI 60 panel, Renal Cancer CAKI-1. Type of assay: cell-based. The note with it: Homo sapiens, read-out: Tumor cell inhibitory activity (NCI) GI50.
The test system of a further assay is MALME-3M. As to the kind of experiment: NCI 60 panel, Melanoma MALME-3M. The format is cell-based. The note with it: Homo sapiens, read-out: Tumor cell inhibitory activity (NCI) GI50.
The subject of the next assay is wild type HeLa cells. Nature of the assay: HeLa cytotoxicity, wild type. The format is cell-based. The note with it: Homo sapiens.
In a further assay the test system is KM12. Nature of the assay: NCI 60 panel, Colon Cancer KM12. Type of assay: cell-based. The note with it: Homo sapiens, read-out: Tumor cell inhibitory activity (NCI) GI50.
For another assay, the system named is HOP-92. Nature of the assay: NCI 60 panel, NSCLC HOP-92. The note with it: Homo sapiens, read-out: Tumor cell inhibitory activity (NCI) GI50. Type of assay: cell-based.
The next assay relates to ACHN. Nature of the assay: NCI 60 panel, Renal Cancer ACHN. The format is cell-based. Conditions: Homo sapiens, read-out: Tumor cell inhibitory activity (NCI) GI50.

The structures appear in SMILES notation.

`COc1ccc(N(C)c2nc(C)nc3c(Cc4ccccc4)cn(C)c23)cc1` [Compound 4, 7-Benzyl-N-(4-methoxyphenyl)-N,2,5-trimethyl-5H-pyrrolo[3,2-d]pyrimidin-4-amine]: the GI50 in the assay on HL-60(TB) was 26.8 nM; in the assay with RPMI-8226, 36.9 nM; in the assay with MCF7, 33.3 nM; in the assay on SF-268, 350 nM; with RXF 393 it was 25.4 nM; with HCC-2998 it was 71.1 nM. The GI50 was determined as 38.7 nM in the assay with NCI-H460; 56.6 nM in the assay on CAKI-1; 17.7 nM in the assay on MALME-3M; 44.5 nM with KM12; 47.1 nM with HOP-92; 172 nM with ACHN. For the same compound, the IC50 was found to be 2200 ± 400 nM in assay [1] and 14 ± 2 nM in the assay on wild type HeLa cells. In assay [2], the “GI50 across the NCI 60 tumor cell line panel, in words” value was 2- to 3-digit nanomolar.

As a reminder, the GI50 is the concentration at which growth is held to half of that of the control. The IC50 is the concentration that inhibits the measured activity by half. A higher IC50 goes with weaker potency.
